In US20260285853A1, “COMPOUNDS AND METHODS FOR MODULATING SPLICING” (REMIX THERAPEUTICS INC., priority 2023, published 2026):
pIC50: −log10 of the molar value.

Tests used:
Assay type in all cases: cell-based
HTT mRNA [1] = test: Splicing RT-qPCR assay (THP), Table 2A; conditions: Table 2A (THP); for AC50: AJ mRNA increase, read-out: HTT AJ (increase in alternative junction mRNA, AC50); for pIC50: CJ mRNA decrease, read-out: HTT CJ (decrease in canonical junction mRNA, IC50)
MYB mRNA [2] = test: Splicing RT-qPCR assay (THP), Table 2A; conditions: Table 2A (THP); for AC50: AJ mRNA increase, read-out: MYB AJ (increase in alternative junction mRNA, AC50); for pIC50: CJ mRNA decrease, read-out: MYB CJ (decrease in canonical junction mRNA, IC50)
HTT mRNA [3] = test: Gene panel canonical junction qPCR assay, decrease in CJ mRNA, Table 3; conditions: decrease in canonical junction (CJ) mRNA, gene panel qPCR, Table 3
Summary of the method: (§1)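 IC50 is the concentration giving 50% response in decrease of the canonical junction transcript, fitted with a 4-parameter logistic equation. Transcripts were quantified by RT-qPCR in A673 or K562 cells after 24 h exposure to compounds dosed up to 10 uM in 3-fold steps.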

MYB mRNA [4] = test: as above; conditions: decrease in canonical junction (CJ) mRNA, gene panel qPCR, Table 3
Summary of the method: as §1

[5] = test system: SH-SY5Y (human neuroblastoma) cells; test: Cell viability, Cell Titer Glo 2.0 assay; conditions: read-out: Viability SHSY5Y.3 GI50
Summary of the method: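 Steps: serial DMSO dilution of compound, 1:100 dilution into medium, addition to cells (0.1% DMSO final). Incubate 72 h at 37 °C, 5% CO2. Assay with CellTiter-Glo 2.0 reagent.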

Cc1cn2cc(NC(=O)c3ccc(N4CC(N5CCNCC5)C4)c4cn(C)nc34)nc2c(C)n1 [Compound 500]
AC50 (HTT mRNA [1]): > 10 µM | pIC50 (HTT mRNA [1]): < 5.00 | AC50 (MYB mRNA [2]): > 10 µM | pIC50 (MYB mRNA [2]): < 5.00 | pIC50 (HTT mRNA [3]): < 5.00 | pIC50 (MYB mRNA [4]): < 5.00 | GI50 [5]: > 10 µM

CNC1CCN(c2ccc(C(=O)Nc3cn4cc(C)nc(C)c4n3)c3nn(C)cc23)C1 (centres unmarked) [Compound 505]
AC50 (HTT mRNA [1]): 0.1 to 1 µM | pIC50 (HTT mRNA [1]): 6.00 to 7.00 | AC50 (MYB mRNA [2]): 0.1 to 1 µM | pIC50 (MYB mRNA [2]): 6.00 to 7.00 | pIC50 (HTT mRNA [3]): 6.00 to 7.00 | pIC50 (MYB mRNA [4]): 6.00 to 7.00 | GI50 [5]: 0.1 to 1 µM

COc1cc2nn(C)cc2cc1NC(=O)c1ccc(N2CC3(CNC3)C2)c2cn(C)nc12 [Compound 506]
AC50 (HTT mRNA [1]): 1 to 10 µM | pIC50 (HTT mRNA [1]): 5.00 to 6.00 | AC50 (MYB mRNA [2]): 0.1 to 1 µM | pIC50 (MYB mRNA [2]): 6.00 to 7.00 | pIC50 (HTT mRNA [3]): 5.00 to 6.00 | pIC50 (MYB mRNA [4]): 6.00 to 7.00 | GI50 [5]: > 10 µM

COc1cc2nn(C)cc2cc1NC(=O)c1ccc(N2CC3(CCNCC3)C2)c2cn(C)nc12 [Compound 507]
AC50 (HTT mRNA [1]): 1 to 10 µM | pIC50 (HTT mRNA [1]): 5.00 to 6.00 | AC50 (MYB mRNA [2]): 0.1 to 1 µM | pIC50 (MYB mRNA [2]): 5.00 to 6.00 | pIC50 (HTT mRNA [3]): 5.00 to 6.00 | pIC50 (MYB mRNA [4]): 5.00 to 6.00 | GI50 [5]: 1 to 10 µM

COc1cc2nn(C)cc2cc1NC(=O)c1ccc(N2CC3(CNCCO3)C2)c2cn(C)nc12 [Compound 508]
AC50 (HTT mRNA [1]): > 10 µM | pIC50 (HTT mRNA [1]): < 5.00 | AC50 (MYB mRNA [2]): 1 to 10 µM | pIC50 (MYB mRNA [2]): < 5.00 | pIC50 (HTT mRNA [3]): < 5.00 | pIC50 (MYB mRNA [4]): < 5.00 | GI50 [5]: 1 to 10 µM

COc1cc2nn(C)cc2cc1NC(=O)c1ccc(N2CC(C3CNC3)C2)c2cn(C)nc12 [Compound 509]
AC50 (HTT mRNA [1]): > 10 µM | pIC50 (HTT mRNA [1]): < 5.00 | AC50 (MYB mRNA [2]): > 10 µM | pIC50 (MYB mRNA [2]): < 5.00 | pIC50 (HTT mRNA [3]): < 5.00 | pIC50 (MYB mRNA [4]): < 5.00 | GI50 [5]: > 10 µM

COc1cc2nn(C)cc2cc1NC(=O)c1ccc(N2CCC3(CCCN3)C2)c2cn(C)nc12 (centres unmarked) [Compound 512]
AC50 (HTT mRNA [1]): > 10 µM | pIC50 (HTT mRNA [1]): < 5.00 | AC50 (MYB mRNA [2]): 0.1 to 1 µM | pIC50 (MYB mRNA [2]): 5.00 to 6.00 | pIC50 (HTT mRNA [3]): < 5.00 | pIC50 (MYB mRNA [4]): 5.00 to 6.00 | GI50 [5]: 1 to 10 µM

COc1cc2nn(C)cc2cc1NC(=O)c1ccc(N2CCC3(CCNC3)C2)c2cn(C)nc12 (centres unmarked) [Compound 513]
AC50 (HTT mRNA [1]): > 10 µM | pIC50 (HTT mRNA [1]): < 5.00 | AC50 (MYB mRNA [2]): 1 to 10 µM | pIC50 (MYB mRNA [2]): 5.00 to 6.00 | pIC50 (HTT mRNA [3]): < 5.00 | pIC50 (MYB mRNA [4]): 5.00 to 6.00 | GI50 [5]: > 10 µM

COc1cc2nn(C)cc2cc1NC(=O)c1ccc(N2CC3CNCC3C2)c2cn(C)nc12 (centres unmarked) [Compound 514]
AC50 (HTT mRNA [1]): 1 to 10 µM | pIC50 (HTT mRNA [1]): 5.00 to 6.00 | AC50 (MYB mRNA [2]): 0.1 to 1 µM | pIC50 (MYB mRNA [2]): 6.00 to 7.00 | pIC50 (HTT mRNA [3]): 5.00 to 6.00 | pIC50 (MYB mRNA [4]): 6.00 to 7.00 | GI50 [5]: > 10 µM

COc1cc2nn(C)cc2cc1NC(=O)c1ccc(N2CC[C@@H]3CNCC[C@@H]32)c2cn(C)nc12 [Compound 515]
AC50 (HTT mRNA [1]): 1 to 10 µM | pIC50 (HTT mRNA [1]): < 5.00 | AC50 (MYB mRNA [2]): 0.1 to 1 µM | pIC50 (MYB mRNA [2]): 6.00 to 7.00 | pIC50 (HTT mRNA [3]): < 5.00 | pIC50 (MYB mRNA [4]): 6.00 to 7.00 | GI50 [5]: 1 to 10 µM

CNC1CCN(c2ccc(C(=O)Nc3cc4cn(C)nc4cc3OC)c3nn(C)cc23)C1 (centres unmarked) [Compound 518]
AC50 (HTT mRNA [1]): 1 to 10 µM | pIC50 (HTT mRNA [1]): 5.00 to 6.00 | AC50 (MYB mRNA [2]): < 0.1 µM | pIC50 (MYB mRNA [2]): 6.00 to 7.00 | pIC50 (HTT mRNA [3]): 5.00 to 6.00 | pIC50 (MYB mRNA [4]): 6.00 to 7.00 | GI50 [5]: 1 to 10 µM

CNC1CCN(c2ccc(NC(=O)c3cc4cc(C)nn4cc3OC)c3nn(C)cc23)CC1 [Compound 520, 6-methoxy-2-methyl-N-[2-methyl-4-[4-(methyamino)-1-piperidyl]indazol-7-yl]-pyrazolo[1,5-a] pyridine-5-carboxamide]
AC50 (HTT mRNA [1]): > 10 µM | pIC50 (HTT mRNA [1]): < 5.00 | AC50 (MYB mRNA [2]): > 10 µM | pIC50 (MYB mRNA [2]): < 5.00 | pIC50 (HTT mRNA [3]): < 5.00 | pIC50 (MYB mRNA [4]): < 5.00 | GI50 [5]: > 10 µM

CNC1CCN(c2ccc(NC(=O)c3cc4cn(C)nc4cc3OC)c3nn(C)cc23)CC1 [Compound 521, 6-methoxy-2-methyl-N-[2-methyl-4-[4-(methylamino)-1-piperidyl]indazol-7-yl]-indazole-5-carboxamide]
AC50 (HTT mRNA [1]): > 10 µM | pIC50 (HTT mRNA [1]): < 5.00 | AC50 (MYB mRNA [2]): > 10 µM | pIC50 (MYB mRNA [2]): < 5.00 | pIC50 (HTT mRNA [3]): < 5.00 | pIC50 (MYB mRNA [4]): < 5.00 | GI50 [5]: > 10 µM

COc1cc2nn(C)cc2cc1NC(=O)c1ccc(N2CCC(NC3CC3)CC2)c2c(CO)n(C)nc12 [Compound 522, 4-[4-(cyclopropylamino)-1-piperidyl]-3-(hydroxymethyl)-N-(6-methoxy-2-methyl-indazol-5-yl)-2-methyl-indazole-7-carboxamide]
AC50 (HTT mRNA [1]): 1 to 10 µM | pIC50 (HTT mRNA [1]): 5.00 to 6.00 | AC50 (MYB mRNA [2]): 1 to 10 µM | pIC50 (MYB mRNA [2]): 5.00 to 6.00 | pIC50 (HTT mRNA [3]): 5.00 to 6.00 | pIC50 (MYB mRNA [4]): 5.00 to 6.00 | GI50 [5]: 1 to 10 µM
